This note sets out measurements from US9266879B2, “Naphthridine derivatives as PI3K inhibitors for the treatment of cancer and immune-inflammatory disease” (Karus Therapeutic Limited, priority 2010, dated 2016).

The term IC50 denotes the concentration needed to halve the response being measured.

One assay concerns MCF7 Breast Tumour Cell. The experiment in a line: MCF7 breast tumour cell growth inhibition. The assay is classed as cell-based. The conditions noted are these: Homo sapiens.
The next assay deals with PI3K-p110β (Homo sapiens, UniProt P42338). The assay is described as follows: Biochemical PI3K-p110β inhibition.
A further assay addresses PI3K-p110γ (Homo sapiens, UniProt P48736). The assay is described as follows: PI3K-p110γ inhibition. Type of assay: biochemical.
Another assay addresses PI3K-p110δ (Homo sapiens, UniProt O00329). The assay is described as follows: PI3K-p110δ inhibition. The assay is classed as biochemical.
The target of the next assay is PI3K-p110α (Homo sapiens, UniProt P42336). The assay is described as follows: PI3K-p110α inhibition. The assay is classed as biochemical.
The mark [1] stands for this setting: read-out: Biochemical IC50, PI3K-p110β.

Where two headings read alike, the source gives them in different places.

Sequence of PI3K-p110β (P42338 whole entry): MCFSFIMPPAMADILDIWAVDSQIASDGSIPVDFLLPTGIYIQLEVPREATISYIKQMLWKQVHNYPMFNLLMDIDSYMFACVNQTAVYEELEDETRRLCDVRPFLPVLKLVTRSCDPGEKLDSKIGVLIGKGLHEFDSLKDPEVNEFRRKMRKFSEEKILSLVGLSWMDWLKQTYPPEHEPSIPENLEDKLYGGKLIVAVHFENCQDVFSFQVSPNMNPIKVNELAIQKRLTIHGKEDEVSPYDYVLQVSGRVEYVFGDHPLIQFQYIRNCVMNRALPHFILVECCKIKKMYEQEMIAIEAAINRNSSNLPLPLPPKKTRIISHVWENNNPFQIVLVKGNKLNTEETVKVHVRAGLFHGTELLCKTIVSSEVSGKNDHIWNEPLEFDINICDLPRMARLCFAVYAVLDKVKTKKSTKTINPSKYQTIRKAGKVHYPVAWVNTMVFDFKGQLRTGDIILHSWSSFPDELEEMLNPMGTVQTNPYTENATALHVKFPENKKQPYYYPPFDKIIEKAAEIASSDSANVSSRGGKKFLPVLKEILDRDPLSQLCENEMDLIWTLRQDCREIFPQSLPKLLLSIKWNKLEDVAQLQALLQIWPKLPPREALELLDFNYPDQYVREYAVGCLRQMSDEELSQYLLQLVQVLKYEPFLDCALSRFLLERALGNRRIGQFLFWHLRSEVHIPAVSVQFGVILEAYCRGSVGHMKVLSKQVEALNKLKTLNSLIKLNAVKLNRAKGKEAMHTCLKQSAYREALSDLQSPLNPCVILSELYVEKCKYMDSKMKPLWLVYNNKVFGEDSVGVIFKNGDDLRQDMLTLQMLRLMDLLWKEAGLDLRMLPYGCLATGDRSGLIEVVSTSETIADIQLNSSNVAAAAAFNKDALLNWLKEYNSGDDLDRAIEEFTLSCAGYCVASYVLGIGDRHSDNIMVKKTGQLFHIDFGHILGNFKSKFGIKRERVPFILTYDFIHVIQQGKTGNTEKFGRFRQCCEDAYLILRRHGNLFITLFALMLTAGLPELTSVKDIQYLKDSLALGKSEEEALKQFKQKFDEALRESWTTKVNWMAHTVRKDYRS
Sequence of PI3K-p110β (P27986 whole entry partner): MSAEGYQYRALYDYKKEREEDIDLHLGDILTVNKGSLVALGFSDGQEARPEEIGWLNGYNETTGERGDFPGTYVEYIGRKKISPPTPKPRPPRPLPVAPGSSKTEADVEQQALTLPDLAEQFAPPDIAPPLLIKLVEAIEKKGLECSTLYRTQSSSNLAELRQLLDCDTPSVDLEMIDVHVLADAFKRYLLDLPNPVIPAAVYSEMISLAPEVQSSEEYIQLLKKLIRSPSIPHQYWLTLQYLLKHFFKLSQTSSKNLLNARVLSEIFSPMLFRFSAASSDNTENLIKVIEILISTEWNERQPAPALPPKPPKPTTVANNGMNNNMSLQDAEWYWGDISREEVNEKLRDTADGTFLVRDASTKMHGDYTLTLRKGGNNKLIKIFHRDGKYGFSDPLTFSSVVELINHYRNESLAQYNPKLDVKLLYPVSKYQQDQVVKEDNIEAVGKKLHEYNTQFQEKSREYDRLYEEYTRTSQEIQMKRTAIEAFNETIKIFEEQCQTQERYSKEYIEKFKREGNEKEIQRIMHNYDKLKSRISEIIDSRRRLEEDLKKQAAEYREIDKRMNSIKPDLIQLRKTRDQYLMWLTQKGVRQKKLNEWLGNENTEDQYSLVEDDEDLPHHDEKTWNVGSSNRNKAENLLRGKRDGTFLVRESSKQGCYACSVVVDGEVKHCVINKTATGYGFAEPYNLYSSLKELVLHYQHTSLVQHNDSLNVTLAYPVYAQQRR
Sequence of PI3K-p110δ (O00329 whole entry): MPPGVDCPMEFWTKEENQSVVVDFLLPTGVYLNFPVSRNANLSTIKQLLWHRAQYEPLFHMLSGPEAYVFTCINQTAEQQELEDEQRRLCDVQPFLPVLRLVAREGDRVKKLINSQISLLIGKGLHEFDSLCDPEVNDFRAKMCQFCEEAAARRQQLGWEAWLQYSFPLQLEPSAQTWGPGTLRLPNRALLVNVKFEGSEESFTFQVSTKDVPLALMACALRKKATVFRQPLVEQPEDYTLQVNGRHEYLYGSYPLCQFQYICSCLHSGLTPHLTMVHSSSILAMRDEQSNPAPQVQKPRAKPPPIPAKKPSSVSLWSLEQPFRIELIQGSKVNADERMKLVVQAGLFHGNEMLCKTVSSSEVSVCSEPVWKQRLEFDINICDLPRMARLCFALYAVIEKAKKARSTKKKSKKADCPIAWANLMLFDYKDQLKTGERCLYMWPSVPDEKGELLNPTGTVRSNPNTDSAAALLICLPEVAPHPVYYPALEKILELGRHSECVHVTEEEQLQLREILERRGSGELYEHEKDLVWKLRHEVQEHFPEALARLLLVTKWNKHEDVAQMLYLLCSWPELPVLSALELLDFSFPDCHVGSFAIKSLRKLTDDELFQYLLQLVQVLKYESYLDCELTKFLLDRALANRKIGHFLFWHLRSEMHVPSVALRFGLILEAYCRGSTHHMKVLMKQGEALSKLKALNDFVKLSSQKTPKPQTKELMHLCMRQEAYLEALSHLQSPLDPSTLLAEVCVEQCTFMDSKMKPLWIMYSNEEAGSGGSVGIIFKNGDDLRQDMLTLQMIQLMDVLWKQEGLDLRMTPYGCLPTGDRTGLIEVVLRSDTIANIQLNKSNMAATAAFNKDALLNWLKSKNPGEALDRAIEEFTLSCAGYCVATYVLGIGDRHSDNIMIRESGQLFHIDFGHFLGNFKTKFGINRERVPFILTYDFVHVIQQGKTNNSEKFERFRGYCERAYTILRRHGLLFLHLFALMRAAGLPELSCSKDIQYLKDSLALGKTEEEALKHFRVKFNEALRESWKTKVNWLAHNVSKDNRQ
Sequence of PI3K-p110δ (P27986 whole entry partner): as the sequence (P27986 whole entry partner) above
Sequence of PI3K-p110α (P42336 whole entry): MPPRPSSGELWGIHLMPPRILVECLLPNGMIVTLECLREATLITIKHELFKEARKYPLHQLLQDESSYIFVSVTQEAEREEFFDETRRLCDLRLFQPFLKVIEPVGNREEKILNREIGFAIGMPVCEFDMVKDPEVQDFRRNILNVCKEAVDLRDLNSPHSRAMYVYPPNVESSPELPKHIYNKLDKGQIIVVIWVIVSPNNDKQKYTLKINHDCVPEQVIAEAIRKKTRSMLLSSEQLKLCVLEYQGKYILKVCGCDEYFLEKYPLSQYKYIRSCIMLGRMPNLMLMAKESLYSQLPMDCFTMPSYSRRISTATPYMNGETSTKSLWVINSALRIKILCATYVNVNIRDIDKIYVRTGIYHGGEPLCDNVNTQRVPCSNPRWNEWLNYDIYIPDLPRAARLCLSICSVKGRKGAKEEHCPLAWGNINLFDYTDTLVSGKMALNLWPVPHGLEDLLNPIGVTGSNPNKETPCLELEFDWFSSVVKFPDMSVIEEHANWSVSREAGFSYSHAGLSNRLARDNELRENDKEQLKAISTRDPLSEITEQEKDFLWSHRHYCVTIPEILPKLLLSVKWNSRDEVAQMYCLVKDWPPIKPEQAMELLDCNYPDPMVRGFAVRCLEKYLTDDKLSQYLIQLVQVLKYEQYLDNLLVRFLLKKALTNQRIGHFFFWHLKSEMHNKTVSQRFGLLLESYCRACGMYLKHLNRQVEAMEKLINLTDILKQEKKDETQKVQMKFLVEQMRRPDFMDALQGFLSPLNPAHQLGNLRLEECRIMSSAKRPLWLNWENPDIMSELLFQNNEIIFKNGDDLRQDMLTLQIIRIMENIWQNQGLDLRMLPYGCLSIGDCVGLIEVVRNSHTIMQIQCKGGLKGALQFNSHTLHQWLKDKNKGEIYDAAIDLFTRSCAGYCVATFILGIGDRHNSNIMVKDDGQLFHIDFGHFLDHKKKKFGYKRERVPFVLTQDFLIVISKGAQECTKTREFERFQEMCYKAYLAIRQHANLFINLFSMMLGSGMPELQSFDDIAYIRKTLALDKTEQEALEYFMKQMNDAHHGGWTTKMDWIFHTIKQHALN
Sequence of PI3K-p110α (P27986 whole entry partner): as the sequence (P27986 whole entry partner) above
Sequence of PI3K-p110γ (P48736 whole entry): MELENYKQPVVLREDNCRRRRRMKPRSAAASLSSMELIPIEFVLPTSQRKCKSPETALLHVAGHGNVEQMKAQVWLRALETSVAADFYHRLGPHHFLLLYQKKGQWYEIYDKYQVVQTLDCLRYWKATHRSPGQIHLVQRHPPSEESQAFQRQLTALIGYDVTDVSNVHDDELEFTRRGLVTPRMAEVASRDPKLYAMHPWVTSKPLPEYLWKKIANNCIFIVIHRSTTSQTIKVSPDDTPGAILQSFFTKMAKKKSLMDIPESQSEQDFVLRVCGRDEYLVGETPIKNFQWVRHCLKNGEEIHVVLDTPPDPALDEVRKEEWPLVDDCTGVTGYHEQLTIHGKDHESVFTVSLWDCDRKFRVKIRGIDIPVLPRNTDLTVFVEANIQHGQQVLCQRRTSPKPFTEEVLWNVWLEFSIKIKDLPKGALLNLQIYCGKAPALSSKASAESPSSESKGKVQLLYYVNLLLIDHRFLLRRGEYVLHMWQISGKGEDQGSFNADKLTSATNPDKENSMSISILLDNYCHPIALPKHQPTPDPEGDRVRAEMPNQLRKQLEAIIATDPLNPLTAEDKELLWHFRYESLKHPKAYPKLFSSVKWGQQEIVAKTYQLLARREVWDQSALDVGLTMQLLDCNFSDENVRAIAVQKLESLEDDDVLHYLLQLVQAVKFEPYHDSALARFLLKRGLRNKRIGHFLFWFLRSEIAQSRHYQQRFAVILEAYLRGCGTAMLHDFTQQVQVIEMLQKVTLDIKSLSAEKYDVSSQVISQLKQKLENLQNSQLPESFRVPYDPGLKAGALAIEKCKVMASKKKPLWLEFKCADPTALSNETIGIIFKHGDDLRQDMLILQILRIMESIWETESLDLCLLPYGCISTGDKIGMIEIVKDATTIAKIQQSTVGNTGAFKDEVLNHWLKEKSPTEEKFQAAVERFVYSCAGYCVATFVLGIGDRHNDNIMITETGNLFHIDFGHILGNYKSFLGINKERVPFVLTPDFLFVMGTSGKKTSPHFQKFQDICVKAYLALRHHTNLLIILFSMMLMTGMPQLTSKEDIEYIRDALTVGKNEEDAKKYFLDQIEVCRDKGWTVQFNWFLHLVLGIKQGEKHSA

With `Nc1ccc(-c2cc3ncccc3c(N3CCOCC3)n2)cc1Cl` [E, 2-Chloro-4-(5-morpholin-4-yl-[1,6]naphthyridin-7-yl)-phenylamine], the IC50 with MCF7 Breast Tumour Cell is 6.06 µM; on PI3K-p110β (setting [1]), 0.69 µM.

For the molecule `c1cc(-c2cc3ncccc3c(N3CCOCC3)n2)c2cc[nH]c2c1` [G, 7-(1H-Indol-4-yl)-5-morpholin-4-yl-1,6-naphthyridine], the IC50 against PI3K-p110γ is above 10 µM; on PI3K-p110β (isoform panel, second part of table, read-out: IC50 PI3K-p110β) it was 3.4 µM; at PI3K-p110δ, 0.26 µM; at PI3K-p110α, above 10 µM.

Regarding `Nc1ccc(-c2cc3ncccc3c(N3CCOCC3)n2)c(Cl)c1` [F, 3-Chloro-4-(5-morpholin-4-yl-[1,6]naphthyridin-7-yl)-phenylamine], the values for the IC50 with MCF7 Breast Tumour Cell and on PI3K-p110β (setting [1]) were 10.9 µM and 3.7 µM, respectively.
